For series [1], the system named is MDA-MB-231. In words: Dose response curve, cell survival, 48 hours, MDA-MB-231. The format is cell-based. The settings on record: Homo sapiens, Adenocarcinoma, read-out: IC50 of AST-DT-218, MDA-MB-231. The method, then: (§1) A DRC was created to determine whether AST-DT-218 is effective in killing various cancer cells. First, hepatoma cell lines (Huh7 and Hep3B), non-small cell lung cancer cell lines (NCI-H460 and NCI-H1299), pancreatic cancer cell lines (PANC-1 and Mia-Paca-2), rectal cancer cell lines (HT29 and HCT116), a gastric adenocarcinoma cell line (AGS), a malignant melanoma cell line (A375), and an adenocarcinoma cell line (MDA-MB-231) were prepared. Each cell line was cultured in a flask, and the cells which reached the logarithmic growth phase were prepared, washed with PBS, harvested with trypsin, centrifuged to adjust the cell density, and then resuspended in an appropriate culture medium, and plated into 96-well plates. After culturing until the cells attached to the plates and stabilized, AST-DT-218 and controls (lenalidomide and pomalidomide) were prepared and diluted to various concentrations (10-point by diluting by half from the highest concentration of 50 μM). […] After completion of the culture, cell survival was assessed using a cell counting method through cell nuclear staining. Data were collected by measuring cell survival at each concentration, and then DRC was created (see FIGS. 5 to 12) and IC50 values were calculated (see Table 8).

Series [2] concerns SNU475. Nature of the series: HCC cell survival by cell nuclear staining, 24 hours, SNU475. It is filed as cell-based. The settings on record: Homo sapiens, SNU-475. The method, then: (§2) An indication expansion experiment was performed to evaluate the potential of AST-DT-218 for treating hepatocellular carcinoma (HCC). First, HCC cell lines (Huh7, Hep3B, SNU449, and SNU475) were prepared, and AST-DT-218 and Sorafenib were at the highest concentration of 50 μM, serially diluted by half starting therefrom, thereby preparing 10 concentrations (50 μM, 25 μM, 12.5 μM, etc.). HCC cell lines (Huh7, Hep3B, SNU449, SNU475) were seeded into 96-well plates, in which each well was treated with AST-DT-218 and Sorafenib solutions, and the cells were cultured in an incubator for 24 hours. Then, the cell survival at each concentration was evaluated by measuring the cell count using cell nuclear staining, and a concentration-response curve of cell survival was created based on the data, and the IC50 value was derived.

The subject of series [3] is Hep3B. In words: HCC cell survival by cell nuclear staining, 24 hours, Hep3B. It is filed as cell-based. The settings on record: Homo sapiens. The method, then:
as §2

Series [4] in a line: Single dose toxicity study. It is filed as in vivo. The note with it: rats. The procedure: The toxicity of AST-DT-218 at a single dose was evaluated. First, healthy adult male and female rats were prepared and then fasted for 12 hours before the experiment. Solutions were prepared for each dose group (0 mg/kg, 500 mg/kg, 1,000 mg/kg, and 2,000 mg/kg), and the final solution volume was set at 40 mL/kg.
For […] to 15 days after administration, clinical symptoms (e.g., colored stool, hairloss, etc.), changes in weight, changes in food consumption, and changes in organ weight were observed, and ophthalmic examinations were performed and autopsies were performed.

In series [5] the target is CRBN proteins (Homo sapiens (Human), UniProt Q96SW2). In words: CRBN affinity test. It is filed as binding. The note with it: purified CRBN proteins expressed in E. coli. The method, then: First, CRBN proteins were expressed in E. coli and purified, and then the purified CRBN proteins were dissolved in a buffer solution (PBS). […] After the mixture was sufficiently mixed and reacted, the binding strength at each concentration was measured to collect data, and a binding curve was created therefrom (see FIG. 13), and the KD (equilibrium dissociation constant) values were derived therefrom (see Table 9 and FIG. 14).
Sequence of CRBN proteins (Q96SW2 whole entry): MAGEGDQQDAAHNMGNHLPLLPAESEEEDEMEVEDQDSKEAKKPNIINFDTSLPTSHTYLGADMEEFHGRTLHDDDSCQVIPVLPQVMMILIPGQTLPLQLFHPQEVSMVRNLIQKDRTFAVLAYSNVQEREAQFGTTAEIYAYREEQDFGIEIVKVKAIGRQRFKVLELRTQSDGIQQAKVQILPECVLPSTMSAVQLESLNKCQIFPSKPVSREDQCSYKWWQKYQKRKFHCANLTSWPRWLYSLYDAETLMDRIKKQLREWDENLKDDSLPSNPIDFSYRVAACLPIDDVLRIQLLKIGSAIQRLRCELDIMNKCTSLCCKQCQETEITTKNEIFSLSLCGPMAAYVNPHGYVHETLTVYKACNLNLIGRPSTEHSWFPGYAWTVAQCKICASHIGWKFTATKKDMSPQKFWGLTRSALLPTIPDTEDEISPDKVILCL

Series [6] relates to NCI-H460. In words: Dose response curve, cell survival, 48 hours, NCI-H460. The format is cell-based. The note with it: Homo sapiens, Non-Small Cell Lung Cancer, read-out: IC50 of AST-DT-218, NCI-H460. The method, then: as §1
For series [7], the system named is SNU449. In words: HCC cell survival by cell nuclear staining, 24 hours, SNU449. The format is cell-based. The note with it: Homo sapiens, SNU-449. The method, then:
as §2

Series [8] relates to HCT116. Nature of the series: Dose response curve, cell survival, 48 hours, HCT116. It is filed as cell-based. The settings on record: Homo sapiens, HCT-116, Colorectal Carcinoma, read-out: IC50 of AST-DT-218, HCT116. The procedure:
as §1

For series [9], the system named is Huh7. In words: HCC cell survival by cell nuclear staining, 24 hours, Huh7. It is filed as cell-based. The note with it: Homo sapiens, Huh-7. The procedure: as §2
Series [10] concerns the target hERG channel (Homo sapiens (Human), UniProt Q12809). In words: hERG-related cardiotoxicity test using automated patch clamp. The format is cell-based. The note with it: hERG channel-expressing CHO cell line. The method, then:
In order to evaluate the inhibitory effect of AST-DT-218 on the hERG channel and determine its potential to induce cardiotoxicity, a hERG-related cardiotoxicity test using an automated patch clamp was performed. First, a hERG channel-expressing cell line (CHO) was cultured, and AST-DT-218 was dissolved in a solvent (DMSO) and diluted to a concentration (1 μM). Cells were mounted on a patch-clamp device, and the electrical activity of hERG channels was recorded by measuring voltage-dependent currents. The inhibitory effect was calculated as the current reduction ratio, and the IC50 value was derived by constructing a concentration-response curve.
A general note: The hERG channel carries a current that helps repolarise heart muscle cells.

Molecules are shown by their SMILES.

Sequence of hERG channel (Q12809 whole entry): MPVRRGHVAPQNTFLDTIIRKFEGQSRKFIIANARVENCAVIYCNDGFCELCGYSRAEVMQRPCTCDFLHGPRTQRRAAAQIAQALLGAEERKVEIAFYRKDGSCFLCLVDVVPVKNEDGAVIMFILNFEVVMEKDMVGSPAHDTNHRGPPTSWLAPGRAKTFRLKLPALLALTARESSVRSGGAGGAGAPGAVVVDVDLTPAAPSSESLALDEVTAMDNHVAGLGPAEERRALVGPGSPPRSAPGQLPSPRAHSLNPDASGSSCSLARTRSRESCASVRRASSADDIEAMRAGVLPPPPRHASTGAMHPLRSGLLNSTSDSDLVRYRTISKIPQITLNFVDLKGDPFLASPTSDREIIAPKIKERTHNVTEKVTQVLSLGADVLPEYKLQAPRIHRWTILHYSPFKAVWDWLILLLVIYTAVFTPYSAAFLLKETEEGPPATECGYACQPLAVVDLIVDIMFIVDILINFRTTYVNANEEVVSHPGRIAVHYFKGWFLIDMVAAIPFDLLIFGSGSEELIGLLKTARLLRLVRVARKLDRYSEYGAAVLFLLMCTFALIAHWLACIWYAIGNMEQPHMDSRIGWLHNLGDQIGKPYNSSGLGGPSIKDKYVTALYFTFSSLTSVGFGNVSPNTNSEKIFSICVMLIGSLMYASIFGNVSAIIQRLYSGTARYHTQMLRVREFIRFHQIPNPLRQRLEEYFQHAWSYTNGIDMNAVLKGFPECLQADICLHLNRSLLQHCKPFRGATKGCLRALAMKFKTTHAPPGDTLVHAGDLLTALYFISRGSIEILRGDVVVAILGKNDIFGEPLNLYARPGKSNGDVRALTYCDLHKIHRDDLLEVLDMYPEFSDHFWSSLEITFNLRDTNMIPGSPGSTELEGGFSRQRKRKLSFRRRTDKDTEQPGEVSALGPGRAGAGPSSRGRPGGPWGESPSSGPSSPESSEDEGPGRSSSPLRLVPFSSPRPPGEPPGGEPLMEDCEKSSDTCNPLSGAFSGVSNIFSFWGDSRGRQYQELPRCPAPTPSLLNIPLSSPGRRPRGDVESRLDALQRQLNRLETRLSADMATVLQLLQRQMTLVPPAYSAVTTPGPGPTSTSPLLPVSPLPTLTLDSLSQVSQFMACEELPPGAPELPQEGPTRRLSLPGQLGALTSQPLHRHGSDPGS

Regarding `COc1ccc([C@@H](C)Nc2cccc3c2C(=O)N(C2CCC(=O)NC2=O)C3=O)cc1` (stereo partly drawn) [AST-DT-218, 2-(2,6-dioxopiperidin-3-yl)-4-(((R)-1-(4-methoxyphenyl)ethyl)amino)isoindoline-1,3-dione], the IC50 came to 636 nM in series [1]; 1450 nM in series [2]; 378 nM in [3]; 242 nM in series [6]; 155 nM in series [7]; 187 nM in [8]. Besides, in series [9], the IC50 worked out at 750 nM. For the same compound, the “changes in clinical symptoms, body weight, food consumption, ophthalmological examination, organ weights, and autopsies” value in series [4] (single oral dose up to 2,000 mg/kg, 15 days observation) is recorded as “no toxicologically significant changes”. Moreover, the “Clinical Signs” value in series [4] (single p.o. dose 500 mg/kg, all animals, day 2) is reported as “colored stool”; in series [4] (single p.o. dose 1,000 mg/kg, all animals, day 2), “colored stool”; in series [4] (single p.o. dose 2,000 mg/kg, all animals, day 2), “colored stool”; in series [4] (single p.o. dose 2,000 mg/kg, animal #19, day 14-15) it was “loss of fur”; in series [4] (single p.o. dose 2,000 mg/kg, animal #40, day 3), “colored stool”; in series [4] (single p.o. dose 2,000 mg/kg, animals #18 to #20, day 3) it was “colored stool”. The same compound gave a Kd in [5] of 16 nM. Further, the “possibility of causing cardiotoxicity (hERG patch clamp)” value in series [10] was “low possibility of causing cardiotoxicity”.

As usually defined, the IC50 is the midpoint of a concentration-inhibition curve. As usually defined, the Kd is a measure of binding affinity in units of concentration.

These data come from patent US20250129041A1, “MOLECULAR GLUE AND USES THEREOF” (ASTROGEN, INC., priority 2023, published 2025).
